Legend:
[1] = Drug release from AZT oleogels in lipolysis medium (simulated intestinal fluid); type: in vitro ADME; settings: in vitro release over 90 minutes, trapezoidal rule, triplicates
Experimental: Extensive in vitro release studies were conducted to understand the impact of oil, solubilizer and gelling agent on the release of AZT in simulated intestinal fluid (SIF).
Preparation of lipolysis buffer: To prepare lipolysis buffer, tris-maleate (0.474 g), calcium chloride dihydrate (0.275 g), sodium chloride (8.766 g) were weighed and distilled water was added to bring the volume to 1 L. The pH of the buffer was adjusted to pH 6.5 using 5N sodium hydroxide.
Preparation of lipolysis media: L—a phosphotidylcholine (0.576 g/l) and sodium taurodeoxycholate hydrate (1.619 g/l) were added to the lipolysis buffer. Next, the solution was stirred overnight to dissolve all ingredients.
Preparation of pancreatin solution: Three grams of pancreatin was added to 15 ml of lipolysis buffer and stirred on a magnetic stir plate for 10 minutes. The mixture was centrifuged at 28000g, at 5° C. for 10 minutes. The supernant was collected and the pH of the supernant was adjusted to pH 6.5 using 5N sodium hydroxide solution.
Preparation of negative control: To avoid the technical difficulty in material weighing, 40 mg of AZT powder was dispersed into 10 ml of methanol. It was sonicated for 1 minute to get a clear solution. One milliliter was taken into 3 separate Falcon tube and remained still to evaporate the solvent. […]

[2] = In silico pharmacokinetic modelling of AZT oleogels; settings: first order fit to in vitro release data
Experimental: In vivo pharmacokinetics of the various formulations were calculated using the data obtained from in vitro release studies. To achieve this, pharmacokinetic modeling studies were conducted in two steps. In the first step, first order equations to in vitro release data were used to estimate rate constant for drug release (krel) and the extent of drug release (Agel, t=0). The rate constant of drug release was considered a measure of the speed of drug release. The extent of drug release or Agel, t=0 was a measure of the total amount of drug that could be released from the formulation at 90 min, which likely depended on the partition coefficient for AZT between the oily formulation and aqueous release medium. […] In the second step, one-compartment oral drug administration model was constructed. Using krel and Agel, t=0 as input, pharmacokinetic parameters such as maximum concentration (Cmax), time to maximum concentration (Tmax) and serum drug exposure or area under the curve (AUCfit) were determined. […]

- Average AUC [1]: 127.23 µg·h/mL
- Average Agel, t=0 ([2]; 4.00 mg AZT put in): 3.98 mg
Compound: CC[C@H]1OC(=O)[C@H](C)[C@@H](O[C@H]2C[C@@](C)(OC)[C@@H](O)[C@H](C)O2)[C@H](C)[C@@H](O[C@@H]2O[C@H](C)C[C@H](N(C)C)[C@H]2O)[C@](C)(O)C[C@@H](C)CN(C)[C@H](C)[C@@H](O)[C@]1(C)O [Control, azithromycin]
- average krel [2]: 5.28 h⁻¹
